How the values were obtained:
Assay in all cases: relative viability (nuclei count vs DMSO), 5 days (fraction); higher = more cells survive
LC-2-ad = tested on: LC-2-ad
Outline: (§1)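 Relative viability divides the nuclei count in treated wells by that in vehicle wells. Lung cancer cell lines were seeded in 1536-well plates, dosed by pin tool the next day, and fixed and stained after 5 days in one step with final 0.05% Triton X-100, 1% formaldehyde and 1 ug/ml Hoechst. Dosing was a single drug or a fixed anchor-drug dose plus five library-drug doses (not always all listed) in √10 steps, and values are medians of duplicate plates imaged at 4×.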

NCI-H838 = tested on: NCI-H838
Outline: as §1

LK-2 = tested on: LK-2
Outline: as §1

SK-LU-1 = tested on: SK-LU-1
Outline: as §1

NCI-H2009 = tested on: NCI-H2009
Outline: as §1

ChaGo-K-1 = tested on: ChaGo-K-1
Outline: as §1

NCI-H2405 = tested on: NCI-H2405
Outline: as §1

HARA = tested on: HARA
Outline: as §1

EMC-BAC-2 = tested on: EMC-BAC-2
Outline: as §1

NCI-H2023 = tested on: NCI-H2023
Outline: as §1

A-427 = tested on: A-427
Outline: as §1

ABC-1 = tested on: ABC-1
Outline: as §1

HCC-78 = tested on: HCC-78
Outline: as §1

NCI-H1734 = tested on: NCI-H1734
Outline: as §1

HCC-15 = tested on: HCC-15
Outline: as §1

NCI-H1650 = tested on: NCI-H1650
Outline: as §1

NCI-H1993 = tested on: NCI-H1993
Outline: as §1

COR-L23 = tested on: COR-L23
Outline: as §1

NCI-H1944 = tested on: NCI-H1944
Outline: as §1

NCI-H23 = tested on: NCI-H23
Outline: as §1

UMC-11 = tested on: UMC-11
Outline: as §1

HCC-366 = tested on: HCC-366
Outline: as §1

NCI-H1793 = tested on: NCI-H1793
Outline: as §1

NCI-H2228 = tested on: NCI-H2228
Outline: as §1

C[C@@H]1CN(CC(=O)Nc2ccc3c(c2)Cc2cccc(-c4cc(=O)cc(N5CCOCC5)o4)c2S3)C[C@H](C)O1 + O=C(c1cc(Cc2n[nH]c(=O)c3ccccc23)ccc1F)N1CCN(C(=O)C2CC2)CC1 [Olaparib] (partner 8 µM)
relative viability (LC-2-ad; first compound 0.04 µM): 0.657 | relative viability (LC-2-ad; first compound 0.1265 µM): 0.653 | relative viability (LC-2-ad; first compound 0.4 µM): 0.689 | relative viability (LC-2-ad; first compound 4 µM): 0.433 | relative viability (NCI-H838; first compound 0.04 µM): 0.746 | relative viability (NCI-H838; first compound 0.1265 µM): 0.685 | relative viability (NCI-H838; first compound 0.4 µM): 0.739 | relative viability (NCI-H838; first compound 4 µM): 0.323 | relative viability (LK-2; first compound 0.04 µM): 0.852 | relative viability (LK-2; first compound 0.1265 µM): 0.724 | relative viability (LK-2; first compound 0.4 µM): 0.575 | relative viability (LK-2; first compound 4 µM): 0.321 | relative viability (SK-LU-1; first compound 0.04 µM): 0.566 | relative viability (SK-LU-1; first compound 0.1265 µM): 0.667 | relative viability (SK-LU-1; first compound 0.4 µM): 0.575 | relative viability (SK-LU-1; first compound 4 µM): 0.219 | relative viability (NCI-H2009; first compound 0.04 µM): 0.71 | relative viability (NCI-H2009; first compound 0.1265 µM): 0.691 | relative viability (NCI-H2009; first compound 0.4 µM): 0.649 | relative viability (NCI-H2009; first compound 4 µM): 0.274 | relative viability (ChaGo-K-1; first compound 0.04 µM): 0.461 | relative viability (ChaGo-K-1; first compound 0.1265 µM): 0.428 | relative viability (ChaGo-K-1; first compound 0.4 µM): 0.404 | relative viability (ChaGo-K-1; first compound 4 µM): 0.389 | relative viability (NCI-H2405; first compound 0.04 µM): 0.938 | relative viability (NCI-H2405; first compound 0.1265 µM): 0.93 | relative viability (NCI-H2405; first compound 0.4 µM): 0.837 | relative viability (NCI-H2405; first compound 4 µM): 0.578 | relative viability (HARA; first compound 0.04 µM): 0.932 | relative viability (HARA; first compound 0.1265 µM): 0.779 | relative viability (HARA; first compound 0.4 µM): 0.87 | relative viability (HARA; first compound 4 µM): 0.22 | relative viability (EMC-BAC-2; first compound 0.04 µM): 0.512 | relative viability (EMC-BAC-2; first compound 0.1265 µM): 0.579 | relative viability (EMC-BAC-2; first compound 0.4 µM): 0.513 | relative viability (EMC-BAC-2; first compound 4 µM): 0.263 | relative viability (NCI-H2023; first compound 0.04 µM): 0.441 | relative viability (NCI-H2023; first compound 0.1265 µM): 0.371 | relative viability (NCI-H2023; first compound 0.4 µM): 0.329 | relative viability (NCI-H2023; first compound 4 µM): 0.148 | relative viability (A-427; first compound 0.04 µM): 0.658 | relative viability (A-427; first compound 0.1265 µM): 0.734 | relative viability (A-427; first compound 0.4 µM): 0.731 | relative viability (A-427; first compound 4 µM): 0.669 | relative viability (ABC-1; first compound 0.04 µM): 0.729 | relative viability (ABC-1; first compound 0.1265 µM): 1.22 | relative viability (ABC-1; first compound 0.4 µM): 0.804 | relative viability (ABC-1; first compound 4 µM): 1.08 | relative viability (HCC-78; first compound 0.04 µM): 0.735 | relative viability (HCC-78; first compound 0.1265 µM): 0.807 | relative viability (HCC-78; first compound 0.4 µM): 0.925 | relative viability (HCC-78; first compound 4 µM): 0.595 | relative viability (NCI-H1734; first compound 0.04 µM): 0.73 | relative viability (NCI-H1734; first compound 0.1265 µM): 0.573 | relative viability (NCI-H1734; first compound 0.4 µM): 0.613 | relative viability (NCI-H1734; first compound 4 µM): 0.551 | relative viability (HCC-15; first compound 0.04 µM): 0.722 | relative viability (HCC-15; first compound 0.1265 µM): 0.658 | relative viability (HCC-15; first compound 0.4 µM): 0.586 | relative viability (HCC-15; first compound 4 µM): 0.286 | relative viability (NCI-H1650; first compound 0.04 µM): 0.731 | relative viability (NCI-H1650; first compound 0.1265 µM): 0.713 | relative viability (NCI-H1650; first compound 0.4 µM): 0.967 | relative viability (NCI-H1650; first compound 4 µM): 0.282 | relative viability (NCI-H1993; first compound 0.04 µM): 1.06 | relative viability (NCI-H1993; first compound 0.1265 µM): 0.963 | relative viability (NCI-H1993; first compound 0.4 µM): 0.942 | relative viability (NCI-H1993; first compound 4 µM): 0.81 | relative viability (COR-L23; first compound 0.04 µM): 0.39 | relative viability (COR-L23; first compound 0.1265 µM): 0.329 | relative viability (COR-L23; first compound 0.4 µM): 0.323 | relative viability (COR-L23; first compound 4 µM): 0.185 | relative viability (NCI-H1944; first compound 0.1265 µM): 0.371 | relative viability (NCI-H1944; first compound 0.4 µM): 0.386 | relative viability (NCI-H1944; first compound 4 µM): 0.321 | relative viability (NCI-H23; first compound 0.04 µM): 0.352 | relative viability (NCI-H23; first compound 0.1265 µM): 0.317 | relative viability (NCI-H23; first compound 0.4 µM): 0.264 | relative viability (NCI-H23; first compound 4 µM): 0.227 | relative viability (UMC-11; first compound 0.04 µM): 0.32 | relative viability (UMC-11; first compound 0.1265 µM): 0.351 | relative viability (UMC-11; first compound 0.4 µM): 0.86 | relative viability (UMC-11; first compound 4 µM): 0.272 | relative viability (HCC-366; first compound 0.04 µM): 0.43 | relative viability (HCC-366; first compound 0.1265 µM): 0.489 | relative viability (HCC-366; first compound 0.4 µM): 0.44 | relative viability (HCC-366; first compound 4 µM): 0.055 | relative viability (NCI-H1793; first compound 0.04 µM): 1.01 | relative viability (NCI-H1793; first compound 0.1265 µM): 0.784 | relative viability (NCI-H1793; first compound 0.4 µM): 0.86 | relative viability (NCI-H1793; first compound 4 µM): 0.255 | relative viability (NCI-H2228; first compound 0.04 µM): 0.781 | relative viability (NCI-H2228; first compound 0.1265 µM): 0.505 | relative viability (NCI-H2228; first compound 0.4 µM): 0.571 | relative viability (NCI-H2228; first compound 4 µM): 0.174

— the supplement of paper PMC10307832
